We go through 23 compounds from US6362183B1, “Aromatic sulfonyl alpha-hydroxy hydroxamic acid compounds” (G. D. Searle & Company, priority 1997, dated 2002).

Assay in all cases: In vitro metalloprotease inhibition, fluorogenic peptide assay
What all share (format): biochemical

The target of one assay is T1, recombinant human MMP-1 (Homo sapiens, UniProt P03956).
T1 construct: made in house; host or cells: transfected HT-1080 cells
T1 sequence (P03956 100-469): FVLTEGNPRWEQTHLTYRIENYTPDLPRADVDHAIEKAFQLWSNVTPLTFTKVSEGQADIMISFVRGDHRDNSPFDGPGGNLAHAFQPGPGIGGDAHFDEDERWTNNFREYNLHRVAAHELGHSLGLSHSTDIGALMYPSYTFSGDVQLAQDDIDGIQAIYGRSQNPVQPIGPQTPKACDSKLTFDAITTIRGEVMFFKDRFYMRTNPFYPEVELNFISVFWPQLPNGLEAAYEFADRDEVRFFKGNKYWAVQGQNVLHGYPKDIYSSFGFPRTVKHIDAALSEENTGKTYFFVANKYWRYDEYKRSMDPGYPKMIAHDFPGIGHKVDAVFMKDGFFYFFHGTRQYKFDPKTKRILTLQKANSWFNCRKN
As to conditions: for IC50: APMA-activated enzyme, MCA peptide substrate 4 μM, room temperature, pH 7.5; for inhibitory activity against MMP-1 (in words): discussion of Table 51. How it is done:
(§1) Briefly, 4-aminophenylmercuric acetate (APMA) or trypsin activated MMPs were incubated with various concentrations of the inhibitor compound at room temperature for 5 minutes.
(§2) More specifically, recombinant human MMP-13 and MMP-1 enzymes were prepared in laboratories of the assignee. MMP-13 was expressed in baculovirus as a proenzyme, and purified first over a heparin agarose column and then over a chelating zinc chloride column. The proenzyme was activated by APMA for use in the assay. MMP-1 expressed in transfected HT-1080 cells was provided by Dr. Howard Welgus of Washington University, St. Louis, Mo. The enzyme was also activated using APMA and was then purified over a hydroxamic acid column.
(§3) MCA-ProLeuGlyLeuDpaAlaArgNH^2, wherein MCA is methoxycoumarin and Dpa is 3-(2,4-dinitrophenyl)-L-2,3-diaminopropionyl alanine.
(§4) The buffer used for assays contained 100 mM Tris-HCl, 100 mM NaCl, 10 mM CaCl2 and 0.05 percent polyethyleneglycol (23) lauryl ether at a pH value of 7.5.

The next assay deals with T2, recombinant human MMP-13 (Homo sapiens, UniProt P45452).
T2 construct: made in house
Particulars: for IC50: APMA-activated enzyme, MCA peptide substrate 4 μM, room temperature, pH 7.5; for inhibitory activity against MMP-13 (in words): discussion of Table 51. Here is the method:
as §1, §2, §3, §4

The target in another assay is T3, MMP-2 (Homo sapiens, UniProt P08253).
T3 sequence (P08253 110-660): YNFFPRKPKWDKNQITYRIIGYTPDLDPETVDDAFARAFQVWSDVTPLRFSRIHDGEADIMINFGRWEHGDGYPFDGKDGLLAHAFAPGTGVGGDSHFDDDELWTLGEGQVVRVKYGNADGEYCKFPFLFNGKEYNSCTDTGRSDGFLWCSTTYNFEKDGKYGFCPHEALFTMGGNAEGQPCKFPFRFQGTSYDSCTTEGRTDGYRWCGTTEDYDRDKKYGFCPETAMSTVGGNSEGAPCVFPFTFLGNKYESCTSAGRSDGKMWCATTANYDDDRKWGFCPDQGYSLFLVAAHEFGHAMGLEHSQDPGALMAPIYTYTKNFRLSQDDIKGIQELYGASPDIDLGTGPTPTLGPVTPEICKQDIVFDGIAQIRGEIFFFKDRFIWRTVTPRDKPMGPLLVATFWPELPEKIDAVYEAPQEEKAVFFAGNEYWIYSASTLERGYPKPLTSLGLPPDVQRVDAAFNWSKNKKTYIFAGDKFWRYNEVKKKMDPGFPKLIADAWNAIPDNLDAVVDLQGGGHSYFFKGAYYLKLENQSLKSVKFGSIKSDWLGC
As to conditions: for IC50: MCA peptide substrate 4 μM, room temperature, pH 7.5. How it is done: as §1, §3, §4

In a further assay the target is MMP-9 (Homo sapiens, UniProt P14780). As to conditions: MCA peptide substrate 4 μM, room temperature, pH 7.5. Here is the method:
as §1, §3, §4

Where only a bound is given, the exact number is not on record here.

MMP-9, sequence (P14780 107-707 limits assumed, species assumed): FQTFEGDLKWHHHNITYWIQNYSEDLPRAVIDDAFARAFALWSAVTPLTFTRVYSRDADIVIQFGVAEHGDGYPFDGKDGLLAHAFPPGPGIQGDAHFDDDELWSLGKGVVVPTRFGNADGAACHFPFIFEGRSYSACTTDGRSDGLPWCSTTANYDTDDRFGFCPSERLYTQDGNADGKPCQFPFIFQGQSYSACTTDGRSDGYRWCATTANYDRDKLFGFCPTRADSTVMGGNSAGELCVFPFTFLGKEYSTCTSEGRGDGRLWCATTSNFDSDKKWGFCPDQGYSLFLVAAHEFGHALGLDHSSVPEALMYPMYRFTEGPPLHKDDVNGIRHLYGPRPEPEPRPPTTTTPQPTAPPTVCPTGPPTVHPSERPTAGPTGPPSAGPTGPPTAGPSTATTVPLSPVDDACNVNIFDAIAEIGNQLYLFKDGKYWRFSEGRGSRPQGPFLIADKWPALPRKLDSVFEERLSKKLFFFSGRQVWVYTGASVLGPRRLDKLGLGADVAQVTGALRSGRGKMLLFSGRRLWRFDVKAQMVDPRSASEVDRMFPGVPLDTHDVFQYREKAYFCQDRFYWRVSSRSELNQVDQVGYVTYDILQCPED

`CCCCOc1ccc(C(=O)Nc2ccc(S(=O)(=O)CC(C)(O)C(=O)NO)cc2)cc1` (centres unmarked) [Example 25, 4-butoxy-N-[4-[[2-hydroxy-3-(hydroxyamino)-2-methyl-3-oxopropyl]sulfonyl]phenyl]benzamide]: the IC50 – broadly, the midpoint of a concentration-inhibition curve – on recombinant human MMP-1 is > 10000 nM; at recombinant human MMP-13 it was 1.2 nM; on MMP-2, 0.2 nM.

For the compound `CCCCCCCOc1ccc(C(=O)Nc2ccc(S(=O)(=O)CC(C)(O)C(=O)NO)cc2)cc1` (centres unmarked) [Example 24, 4-(heptyloxy)-N-[4-[[2-hydroxy-3-(hydroxyamino)-2-methyl-3-oxopropyl]sulfonyl]phenyl]benzamide], at recombinant human MMP-1, the IC50 was > 10000 nM and the “inhibitory activity against MMP-1 (in words)” value was “lower than could be measured in the assay”. On recombinant human MMP-13, the IC50 is < 0.1 nM and the “inhibitory activity against MMP-13 (in words)” value is reported as “greater than could be measured in the assay”. Further, the IC50 on MMP-2 is < 0.1 nM. Moreover, at MMP-2 (discussion of Table 51), the “inhibitory activity against MMP-2 (in words)” value is listed as “greater than could be measured in the assay”.

For the compound `O=C(NO)[C@H](O)CS(=O)(=O)c1ccc(Oc2ccccc2)cc1` [Example 11, (S)—N,2-dihydroxy-3-[(4-phenoxyphenyl)sulfonyl]propanamide], the IC50 on recombinant human MMP-1 was 7000 nM; at recombinant human MMP-13 it was 5 nM; at MMP-2 it was 7 nM; against MMP-9, 66 nM.

In the case of `CC(O)(CS(=O)(=O)c1ccc(NC(=O)c2ccc(Cl)nc2)cc1)C(=O)NO` (centres unmarked) [Example 22, 6-chloro-N-(4-[[2-hydroxy-3-(hydroxyamino)-2-methyl-3-oxopropyl]sulfonyl]phenyl]-3-pyridinecarboxamide], the IC50 at recombinant human MMP-1 is > 10000 nM; at recombinant human MMP-13, 280 nM; against MMP-2 it was 6.7 nM.

For the compound `COCC(O)(CS(=O)(=O)c1ccc(Oc2ccccc2)cc1)C(=O)NO` (centres unmarked) [Example 6, N,2-dihydroxy-2-(methoxymethyl)-3-[(4-phenoxyphenyl)sulfonyl]propanamide], the concentration for half-maximal inhibition (IC50) was determined as 8000 nM at recombinant human MMP-1, 30 nM at recombinant human MMP-13 and 14.8 nM against MMP-2.

For the compound `CC(O)(CS(=O)(=O)c1ccc(NC(=O)c2cccc(N)c2)cc1)C(=O)NO` (centres unmarked) [Example 35, 3-amino-N-[4-[[2-hydroxy-3-(hydroxyamino)-2-methyl-3-oxopropyl]-sulfonyl]phenyl]benzamide], the IC50 was > 10000 nM on recombinant human MMP-1, 290 nM on recombinant human MMP-13 and 6.7 nM against MMP-2.

Take `CC(O)(CS(=O)(=O)c1ccc(NC(=O)c2ccc(F)c(F)c2)cc1)C(=O)NO` (centres unmarked) [Example 32, 3,4-difluoro-N-[4-[[2-hydroxy-3-(hydroxyamino)-2-methyl-3-oxopropyl]sulfonyl]phenyl]benzamide]: the results for the IC50 at recombinant human MMP-1, at recombinant human MMP-13 and against MMP-2 were > 10000 nM, 80 nM and 1.6 nM, respectively.

With `COc1cccc(C(=O)Nc2ccc(S(=O)(=O)CC(C)(O)C(=O)NO)cc2)c1` (centres unmarked) [Example 27], the IC50 was > 10000 nM at recombinant human MMP-1, 666 nM on recombinant human MMP-13 and 10 nM against MMP-2.

Turning to `COc1ccc(S(=O)(=O)CC(O)C(=O)NO)cc1` (centres unmarked) [Example 8, N,2-dihydroxy-3-[(4-methoxyphenyl)sulfonyl]propanamide], at recombinant human MMP-1, the IC50 was > 10000 nM and the “inhibitory activity against MMP-1 (in words)” value was “relatively inactive”. Further, on recombinant human MMP-13, the IC50 is 200 nM and the “inhibitory activity against MMP-13 (in words)” value is given as “only slightly better”.

Regarding `CCCCc1ccc(C(=O)Nc2ccc(S(=O)(=O)CC(C)(O)C(=O)NO)cc2)cc1` (centres unmarked) [Example 28, 4-butyl-N-[4-[[2-hydroxy-3-(hydroxyamino) -2-methyl-3-oxopropyl]-sulfonyl]phenyl]benzamide], the figures for the IC50 at recombinant human MMP-1, on recombinant human MMP-13 and at MMP-2 were > 10000 nM, 0.8 nM and < 0.1 nM, respectively.

`Cc1ccccc1NC(=O)Nc1ccc(S(=O)(=O)CC(C)(O)C(=O)NO)cc1` (centres unmarked) [Example 19, N,2-dihydroxy-2-methyl-3-[[4-[[[(2-methylphenyl)amino]carbonyl]amino]phenyl]sulfonyl]propanamide]: the IC50 was > 10000 nM on recombinant human MMP-1, 10000 nM on recombinant human MMP-13 and 2600 nM against MMP-2.

For the compound `CC(O)(CS(=O)(=O)c1ccc(NC(=O)Nc2ccccc2)cc1)C(=O)NO` (centres unmarked) [Example 15, N,2-dihydroxy-2-methyl-3-[[4-[((phenylamino)carbonyl)amino]phenyl]sulfonyl]propanamide], the IC50 on recombinant human MMP-1 was > 10000 nM; at recombinant human MMP-13, 3200 nM; on MMP-2 it was 87 nM.

As for `CC(O)(CS(=O)(=O)c1ccc(NC(=O)c2cccc(F)c2)cc1)C(=O)NO` (centres unmarked) [Example 29], the IC50 was > 10000 nM at recombinant human MMP-1, 80 nM at recombinant human MMP-13 and 1.8 nM on MMP-2.

`CCCCCc1ccc(C(=O)Nc2ccc(S(=O)(=O)CC(C)(O)C(=O)NO)cc2)cc1` (centres unmarked) [Example 14, N-[4-[[2-hydroxy-3-(hydroxyamino)-2-methyl-3-oxopropyl]sulfonyl]phenyl]pentylbenzamide]: the IC50 at recombinant human MMP-1 was > 10000 nM; on recombinant human MMP-13, 0.5 nM; against MMP-2, < 0.1 nM.

`CCCc1ccc(C(=O)Nc2ccc(S(=O)(=O)CC(C)(O)C(=O)NO)cc2)cc1` (centres unmarked) [Example 26, N-[4-[[2-hydroxy-3-(hydroxyamino)-2-methyl-3-oxopropyl]-sulfonyl]phenyl]4-propylbenzamide]: the IC50 is > 10000 nM at recombinant human MMP-1, 1.2 nM on recombinant human MMP-13 and 0.1 nM against MMP-2.

In the case of `Cc1ccc(NC(=O)Nc2ccc(S(=O)(=O)CC(C)(O)C(=O)NO)cc2)cc1` (centres unmarked) [Example 21, N,2-dihydroxy-2-methyl-3-[[4-[[[(4-methylphenyl)amino]carbonyl]amino]phenyl]sulfonyl]propanamide], the IC50 was > 10000 nM at recombinant human MMP-1, 3600 nM at recombinant human MMP-13 and 34 nM on MMP-2.

In the case of `CC(O)(CS(=O)(=O)c1ccc(NC(=O)c2ccc(Cl)cc2)cc1)C(=O)NO` (centres unmarked) [Example 18], the IC50 at recombinant human MMP-1 is > 10000 nM; at recombinant human MMP-13, 13 nM; at MMP-2, 0.5 nM.

Take `CC(C)CC(=O)Nc1ccc(S(=O)(=O)CC(C)(O)C(=O)NO)cc1` (centres unmarked) [Example 17, N-[4-[[2-hydroxy-3-(hydroxyamino)-2-methyl-3-oxopropyl]sulfonyl]phenyl]-3-methylbutanamide]: the values for the IC50 on recombinant human MMP-1, at recombinant human MMP-13 and against MMP-2 were > 10000 nM, 900 nM and 400 nM, respectively.

As to `CC(O)(CS(=O)(=O)c1ccc(NC(=O)c2cccc(Cl)c2)cc1)C(=O)NO` (centres unmarked) [Example 31, 3-chloro-N-[4-[[2-hydroxy-3-(hydroxyamino)-2-methyl-3-oxopropyl]sulfonyl]phenyl]benzamide], the IC50 is > 10000 nM at recombinant human MMP-1, 600 nM on recombinant human MMP-13 and 37.2 nM against MMP-2.

For `CC(O)(CS(=O)(=O)c1ccc(NC(=O)c2cccc(NCCCCO)c2)cc1)C(=O)NO` (centres unmarked) [Example 34], the IC50 at recombinant human MMP-1 is > 10000 nM; at recombinant human MMP-13 it was 1600 nM; against MMP-2, 32.7 nM.

In the case of `CC(O)(CS(=O)(=O)c1ccc(NC(=O)c2cccc([N+](=O)[O-])c2)cc1)C(=O)NO` (centres unmarked) [Example 33], the figures for the IC50 on recombinant human MMP-1, at recombinant human MMP-13 and against MMP-2 were > 10000 nM, 1600 nM and 50 nM, respectively.

For the compound `Cc1cccc(C(=O)Nc2ccc(S(=O)(=O)CC(C)(O)C(=O)NO)cc2)c1` (centres unmarked) [Example 30, N-[4-[[2-hydroxy-3-(hydroxyamino)-2-methyl-3-oxopropyl]sulfonyl]phenyl]-3-methylbenzamide], the values for the IC50 at recombinant human MMP-1, on recombinant human MMP-13 and against MMP-2 were > 10000 nM, 316 nM and 20 nM, respectively.

As for `Cc1cccc(NC(=O)Nc2ccc(S(=O)(=O)CC(C)(O)C(=O)NO)cc2)c1` (centres unmarked) [Example 20, N,2-dihydroxy-2-methyl-3-[[4-[[[(3-methylphenyl)amino]carbonyl]amino]phenyl]sulfonyl]propanamide], the values for the IC50 at recombinant human MMP-1, on recombinant human MMP-13 and at MMP-2 were > 10000 nM, 6600 nM and 300 nM, respectively.
